Experimental findings from US20240197756A1, “METHODS OF TREATMENT WITH NEUROACTIVE STEROIDS” (priority 2021, published 2024) are described below.

Data set [1] in a line: Food Effect Cohort (Cohort 4), plasma pharmacokinetics fasted vs high-fat meal. Type of data set: in vivo, human.
Experimental: A Food Effect Cohort (Cohort 4) was conducted to assess the effect of food on the PK profile of a single dose of Compound 1 when administered to healthy subjects. The subjects of Cohort 4 were treated with 30 mg of Compound 1 QD.
Cohort 4 subjects received a single 30 mg dose of a Compound 1 suspension on Days 1 and 5. The Day 1 dose was administered after a minimum of 10 hour fasting. No additional fluid intake was allowed until 1 hour after drug administration. A standard meal was given at least 4 hours post-dose. The Day 5 dose was administered following a high-fat, high calorie meal. Participants remained at the clinical site for a total of 8 days to complete pharmacokinetic sampling after the second dose.
Plasma samples were analyzed to determine Compound 1 concentrations using a validated assay method. Pharmacokinetic variables (including but not limited to Cmax, Tmax and AUC(0-last)) were calculated using non-compartmental analysis. PK parameters for Compound 1 were derived from the plasma concentration data using non-compartmental analysis with Phoenix™ WinNonlin® v 8.0 (Pharsight Corporation, USA).
Blood (Cohort 4): Serial blood samples were collected relative to the dosing of Compound 1 at the following time points on both Day 1 and Day 5: Pre-dose (0 hours), 0.25, 0.50, 0.75, 1.00, 1.50, 2.00, 2.50, 3.00, 4.00, 6.00, 8.00, 12.00, 16.00, 24.00, 36.00, 48.00 and 72.00 hours post-dose (±2 min).
The test system of a further data set is harmaline-induced tremor. The data set can be described thus: Rat Harmaline Induced Tremor (rHIT) model. Particulars: 0.3, 1, 3, 10 mg/kg i.p., 30 min before harmaline 30 mg/kg i.p. (FIG. 9). Type of data set: in vivo. From the text: A rat model of tremor (Rat Harmaline Induced Tremor; rHIT) was used to assess the impact of Compound 1 on reducing the symptoms of tremor. Male SD rats (SLAC, Shanghai, China) having a body weight of about 250 g at the time of testing were fed ad libitum and kept in a 12:12 light-dark cycle room, with the lights on from 5 a.m. to 5 p.m, throughout the study. Rats were allowed to acclimate to standard laboratory conditions for at least 5-7 days prior to the experiment.
One day prior to testing, a naive rat was placed in the testing chamber, which was a plexiglass chamber with a piezoelectric plate attached at the bottom to transduce tremor behavior into an electrical signal. The rat was placed in the chamber in order to adjust the spontaneous activity baseline signal. […]
Next, at T=0 minutes, all groups were intraperitoneally administered 30 mg/kg (5 mL/kg) of harmaline formulated in a saline vehicle. The post-harmaline effect was measured for twenty minutes (T=10 to 30 minutes). […]
Piezoelectric plate signal analysis: For the power spectral density analysis, electrical tremor signal was processed with fast Fourier transform (FFT) at a resolution of 0.5 Hz bins. […] The average maximum power density across the 8-13 Hz band in 0.5 Hz bins was also calculated. […]

The mark [2] stands for this setting: 30 mg single dose, Fasted (Day 1), n = 10, Mean.
[3] abbreviates: 30 mg single dose, Fed (high-fat, high calorie meal), n = 10, Mean.

“Also recorded” adds a separate entry of the source.

The term half-life denotes the time in which the quantity being followed falls by half. Higher therefore signals slow loss. In the case of `COC[C@@]1(O)CC[C@@]2(C)[C@@H](CC[C@@H]3[C@@H]2CC[C@]2(C)[C@@H](C(=O)Cn4ccnc4)CC[C@@H]32)C1` [Compound 1, 3α-Hydroxy-3β-methoxymethyl-21-(1′-imidazolyl)-5α-pregnan-20-one], in data set [1] (30 mg dose), the “t1/2 fasted vs fed conditions” value was “similar”. Besides, the “AUC increase in the fed state versus the fasted state” value in data set [1] (30 mg dose group) worked out at 1.17 fold. In data set [1] (30 mg dose, high-fat meal), the “AUC0-t Fed/Fasted Ratio” value came to 1.17 and the “Cmax Fed/Fasted Ratio” value is 0.64. In data set [1] (setting [2]), the AUC0-last stood at 597.7 ng·h/mL, the “AUC %Extrap” value was found to be 0.8702%, the AUCinf was determined as 602.3 ng·h/mL and the Cmax was 84.18 ng/mL. Moreover, in data set [1] (setting [3]), the AUC0-last turned out to be 629.9 ng·h/mL, the “AUC %Extrap” value was 0.6632%, the AUCinf came out at 634.2 ng·h/mL and the Cmax was found to be 45.36 ng/mL. The Tmax in data set [1] (30 mg single dose, Fed (high-fat, high calorie meal), n = 10, Median) was determined as 3.25 h. Besides, in data set [1] (human, in vivo, 30 mg), the “Cmax decrease under fed conditions” value was found to be 0.64 fold. In addition, the half-life in data set [1] (human, in vivo, 30 mg single dose, Fasted (Day 1), n = 10, Mean) was 11.2 h. Also, the “inhibition of harmaline-induced tremor” value with harmaline-induced tremor is on record as “dose-dependently inhibits; also recorded: dose dependent inhibition”.
